One block for each compound: values may come before it. Active and inactive are the calls of the source.
Assays:
[1] = target: T1, Apoptotic protease-activating factor 1 (Homo sapiens, UniProt O14727); assay type: functional
T1 sequence (O14727 whole entry): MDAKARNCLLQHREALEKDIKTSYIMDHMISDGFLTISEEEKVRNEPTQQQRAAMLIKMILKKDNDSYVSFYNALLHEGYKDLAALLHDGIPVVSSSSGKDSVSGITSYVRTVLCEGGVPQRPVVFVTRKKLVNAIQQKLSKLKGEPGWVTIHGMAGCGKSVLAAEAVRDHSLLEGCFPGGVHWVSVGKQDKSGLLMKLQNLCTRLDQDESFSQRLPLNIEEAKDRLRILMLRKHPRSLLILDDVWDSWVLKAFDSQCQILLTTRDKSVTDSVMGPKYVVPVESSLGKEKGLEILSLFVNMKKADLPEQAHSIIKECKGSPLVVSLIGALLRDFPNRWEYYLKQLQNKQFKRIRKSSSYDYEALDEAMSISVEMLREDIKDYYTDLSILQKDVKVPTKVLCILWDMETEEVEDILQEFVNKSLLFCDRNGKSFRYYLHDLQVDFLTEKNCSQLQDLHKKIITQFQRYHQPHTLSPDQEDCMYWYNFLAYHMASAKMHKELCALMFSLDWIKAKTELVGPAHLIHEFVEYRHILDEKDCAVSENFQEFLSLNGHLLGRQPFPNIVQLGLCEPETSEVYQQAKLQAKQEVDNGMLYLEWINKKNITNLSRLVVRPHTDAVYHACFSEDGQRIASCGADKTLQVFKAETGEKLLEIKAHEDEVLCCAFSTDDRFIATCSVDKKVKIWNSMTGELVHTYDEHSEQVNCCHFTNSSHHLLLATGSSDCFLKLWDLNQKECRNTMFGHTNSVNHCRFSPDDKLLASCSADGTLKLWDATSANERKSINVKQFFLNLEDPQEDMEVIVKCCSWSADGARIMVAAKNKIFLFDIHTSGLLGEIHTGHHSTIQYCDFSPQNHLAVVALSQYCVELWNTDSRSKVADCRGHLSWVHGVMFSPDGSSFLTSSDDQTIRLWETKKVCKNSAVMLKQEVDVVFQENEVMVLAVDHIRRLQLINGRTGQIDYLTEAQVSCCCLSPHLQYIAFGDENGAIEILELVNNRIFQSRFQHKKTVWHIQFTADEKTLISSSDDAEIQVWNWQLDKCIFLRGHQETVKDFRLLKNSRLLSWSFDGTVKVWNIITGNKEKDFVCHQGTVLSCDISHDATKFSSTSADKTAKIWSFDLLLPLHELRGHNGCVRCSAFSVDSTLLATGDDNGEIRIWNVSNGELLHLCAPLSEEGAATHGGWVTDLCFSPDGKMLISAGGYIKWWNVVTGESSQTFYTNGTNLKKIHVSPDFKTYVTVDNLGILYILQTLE

[2] = target: Tyrosyl-DNA phosphodiesterase 2 (Homo sapiens, UniProt O95551); experiment: potency against TDP2 phosphodiesterase activity – biochemical, epi absorbance, IC50, dose response (AID 743297)
Chain of Tyrosyl-DNA phosphodiesterase 2 (O95551 whole entry): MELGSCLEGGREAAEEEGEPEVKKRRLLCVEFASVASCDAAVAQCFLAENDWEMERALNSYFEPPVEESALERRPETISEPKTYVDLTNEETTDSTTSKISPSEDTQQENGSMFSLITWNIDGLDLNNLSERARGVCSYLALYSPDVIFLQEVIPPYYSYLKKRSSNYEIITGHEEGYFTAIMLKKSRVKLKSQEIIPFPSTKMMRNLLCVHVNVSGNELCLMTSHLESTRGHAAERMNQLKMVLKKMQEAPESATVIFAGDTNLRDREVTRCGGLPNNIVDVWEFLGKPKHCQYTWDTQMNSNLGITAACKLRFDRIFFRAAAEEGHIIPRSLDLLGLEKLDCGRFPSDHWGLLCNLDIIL

Genome polyprotein = Genome polyprotein (dengue virus type 2, UniProt P29990); experiment: flavivirus cap methylation enzyme inhibition – biochemical, confirmation dose response, primary screen (AID 588689); assay type: functional
Chain of Genome polyprotein (P29990 2492-3391 limits assumed): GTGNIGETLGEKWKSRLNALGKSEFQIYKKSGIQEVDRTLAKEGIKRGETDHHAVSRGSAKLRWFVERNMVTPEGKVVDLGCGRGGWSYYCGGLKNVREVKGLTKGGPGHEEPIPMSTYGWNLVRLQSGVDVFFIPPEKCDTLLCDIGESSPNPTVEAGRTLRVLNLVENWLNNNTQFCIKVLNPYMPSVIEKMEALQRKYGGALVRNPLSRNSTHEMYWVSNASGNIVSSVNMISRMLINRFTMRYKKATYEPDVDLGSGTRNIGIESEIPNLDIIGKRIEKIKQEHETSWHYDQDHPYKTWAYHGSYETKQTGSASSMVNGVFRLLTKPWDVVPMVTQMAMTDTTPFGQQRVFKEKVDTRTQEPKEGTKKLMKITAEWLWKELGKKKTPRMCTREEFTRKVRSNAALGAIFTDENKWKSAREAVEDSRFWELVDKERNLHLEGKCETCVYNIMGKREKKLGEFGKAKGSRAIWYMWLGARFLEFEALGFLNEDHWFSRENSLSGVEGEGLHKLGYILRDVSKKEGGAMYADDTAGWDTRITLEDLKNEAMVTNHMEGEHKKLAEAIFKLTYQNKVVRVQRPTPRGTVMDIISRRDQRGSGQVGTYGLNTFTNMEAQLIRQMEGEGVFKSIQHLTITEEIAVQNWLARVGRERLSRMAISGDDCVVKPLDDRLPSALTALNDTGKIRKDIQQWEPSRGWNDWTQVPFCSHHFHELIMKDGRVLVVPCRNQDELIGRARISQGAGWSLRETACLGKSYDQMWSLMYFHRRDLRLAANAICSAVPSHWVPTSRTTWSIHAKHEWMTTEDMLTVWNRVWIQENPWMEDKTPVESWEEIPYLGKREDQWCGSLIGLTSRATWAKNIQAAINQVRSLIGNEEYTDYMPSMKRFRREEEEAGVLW

[3] = target: Heat shock protein HSP 90-alpha (Homo sapiens, UniProt P07900); assay type: functional, organism-based
[4] = target: T2, Short transient receptor potential channel 4 (Mus musculus, UniProt Q9QUQ5); experiment: calcium entry via TRPC4 opening agents – cell-based, HEK293 TRPC4/mu-opioid, Fluo-4 calcium, dose response (AID 434937); assay type: functional
T2 sequence (Q9QUQ5 whole entry): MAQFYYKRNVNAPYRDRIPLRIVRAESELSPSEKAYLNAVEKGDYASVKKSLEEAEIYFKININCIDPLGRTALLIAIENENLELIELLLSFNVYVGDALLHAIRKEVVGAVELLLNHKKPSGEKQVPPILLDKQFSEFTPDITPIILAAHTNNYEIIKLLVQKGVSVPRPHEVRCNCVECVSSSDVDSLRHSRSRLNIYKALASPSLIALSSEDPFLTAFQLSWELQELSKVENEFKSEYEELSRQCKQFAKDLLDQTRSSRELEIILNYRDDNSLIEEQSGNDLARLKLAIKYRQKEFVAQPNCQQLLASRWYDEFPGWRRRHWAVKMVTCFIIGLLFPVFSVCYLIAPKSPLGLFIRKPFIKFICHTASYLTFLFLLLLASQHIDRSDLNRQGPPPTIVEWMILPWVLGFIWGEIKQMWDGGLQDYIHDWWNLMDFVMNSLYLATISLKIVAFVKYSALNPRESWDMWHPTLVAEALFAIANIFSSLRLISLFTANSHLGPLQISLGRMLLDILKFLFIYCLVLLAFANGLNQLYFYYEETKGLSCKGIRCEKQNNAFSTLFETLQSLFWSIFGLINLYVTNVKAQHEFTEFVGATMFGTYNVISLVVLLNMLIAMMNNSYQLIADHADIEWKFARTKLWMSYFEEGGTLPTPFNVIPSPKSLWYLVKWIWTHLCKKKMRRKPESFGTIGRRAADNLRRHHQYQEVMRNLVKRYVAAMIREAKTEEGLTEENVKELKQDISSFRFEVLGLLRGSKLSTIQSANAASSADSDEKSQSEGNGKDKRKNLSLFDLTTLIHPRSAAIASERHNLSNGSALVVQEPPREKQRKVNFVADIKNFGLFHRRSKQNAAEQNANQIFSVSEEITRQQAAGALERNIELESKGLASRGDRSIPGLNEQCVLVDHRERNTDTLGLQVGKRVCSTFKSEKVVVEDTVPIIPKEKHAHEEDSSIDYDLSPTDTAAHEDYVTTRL

[5] = target: T3, Heat shock factor protein 1 (Mus musculus, UniProt P38532); experiment: enhancement of HSF1-driven luciferase signal – cell-based, NIH3T3, luminescence, dose retest, confirmation (AID 435004); assay type: functional;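 note: stress induced by proteasome inhibitor MG132 added 30 min after compound; luciferase reporter driven by HSF1 response element in NIH3T3 cells; actives raise luminescence as potentiators of the MG132 stress response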
T3 sequence (P38532 whole entry): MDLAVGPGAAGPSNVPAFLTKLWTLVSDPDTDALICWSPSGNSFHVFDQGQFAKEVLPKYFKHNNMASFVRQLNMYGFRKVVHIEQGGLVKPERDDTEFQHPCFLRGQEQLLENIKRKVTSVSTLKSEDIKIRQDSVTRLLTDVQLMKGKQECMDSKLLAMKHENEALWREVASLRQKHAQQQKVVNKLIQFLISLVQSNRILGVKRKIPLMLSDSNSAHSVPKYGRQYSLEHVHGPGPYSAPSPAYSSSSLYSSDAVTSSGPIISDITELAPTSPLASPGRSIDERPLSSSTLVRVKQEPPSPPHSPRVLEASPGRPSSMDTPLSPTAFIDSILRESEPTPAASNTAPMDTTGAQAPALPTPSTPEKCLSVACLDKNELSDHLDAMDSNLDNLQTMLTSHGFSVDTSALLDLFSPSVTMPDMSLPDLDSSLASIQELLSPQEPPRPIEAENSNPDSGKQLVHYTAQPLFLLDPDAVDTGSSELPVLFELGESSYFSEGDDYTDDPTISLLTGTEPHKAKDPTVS

[6] = reduction of Shn3 3'UTR-driven luciferase in osteoblasts – cell-based, Clone20 osteoblasts, firefly luciferase, cherry-picked, dose response (AID 624132); assay type: functional;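 note: firefly luciferase luminescence from reporter carrying the Shn3 3'UTR in osteoblasts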
[7] = EF1alpha-driven Renilla reporter with control 3'UTR suppression – Clone20-Shn3RL cells, dual-Glo, cherry-pick, set 2, counter-screen for Shn3 3'UTR targeting project, dose response (AID 720724); assay type: functional, cell-based; conditions: Dual-Go Shn3RL
[8] = target: 1-phosphatidylinositol 4,5-bisphosphate phosphodiesterase gamma-1 (Homo sapiens, UniProt P19174); experiment: Counterscreen for inhibitors of phospholipase C isozymes (PLC-B3): Fluorescence-based biochemical high throughput dose response assay to identify inhibitors of phospholipase C isozymes (PLC-gamma1).
[9] = target: 1-phosphatidylinositol 4,5-bisphosphate phosphodiesterase beta-3 (Homo sapiens, UniProt Q01970); experiment: Fluorescence-based biochemical high throughput dose response assay to identify inhibitors of phospholipase C isozymes (PLC-B3).
Caspase-6 = target: T4, Caspase-6 (Homo sapiens, UniProt P55212); experiment: inhibition of CASP6 peptide cleavage – biochemical, VEID-R110 fluorescence, cherry-pick, dose response (AID 720632)
T4 sequence (P55212 whole entry): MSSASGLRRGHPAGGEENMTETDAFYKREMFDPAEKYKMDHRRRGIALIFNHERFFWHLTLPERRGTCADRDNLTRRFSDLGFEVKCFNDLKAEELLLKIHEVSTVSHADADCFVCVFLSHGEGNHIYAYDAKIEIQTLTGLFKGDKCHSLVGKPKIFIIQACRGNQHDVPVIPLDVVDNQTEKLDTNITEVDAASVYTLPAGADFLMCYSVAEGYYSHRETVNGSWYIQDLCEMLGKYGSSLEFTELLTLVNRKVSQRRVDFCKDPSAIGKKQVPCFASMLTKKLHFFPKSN

Prothrombin = Prothrombin (Bos taurus, UniProt P00735); experiment: thrombin protease inhibitors – biochemical, fluorescence polarization, uHTS hits, dose response (AID 602369); assay type: functional
Caspase-7 = Caspase-7 (Homo sapiens, UniProt P55210); experiment: caspase-7 enzyme inhibition, selectivity check – biochemical, DEVD-R110 fluorescence, cherry-pick, selectivity assay for caspase-6 inhibitor project, dose response (AID 743295); assay type: functional
Chain of Caspase-7 (P55210 24-198 limits assumed): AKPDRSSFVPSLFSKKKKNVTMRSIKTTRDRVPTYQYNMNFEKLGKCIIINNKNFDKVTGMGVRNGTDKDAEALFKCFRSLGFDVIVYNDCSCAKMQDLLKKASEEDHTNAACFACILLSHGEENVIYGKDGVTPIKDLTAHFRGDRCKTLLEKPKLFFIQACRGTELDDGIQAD
Chain of Caspase-7 (P55210 207-303 limits assumed): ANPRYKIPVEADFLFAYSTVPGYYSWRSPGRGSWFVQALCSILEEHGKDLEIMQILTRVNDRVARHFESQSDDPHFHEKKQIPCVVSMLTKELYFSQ

[10] = target: DNA (cytosine-5)-methyltransferase 1 (Homo sapiens, UniProt P26358); experiment: inhibition of DNA methylation by DNMT1 – biochemical, fluorescent molecular beacon, confirmation (AID 602386); assay type: functional
Chain of DNA (cytosine-5)-methyltransferase 1 (P26358 whole entry): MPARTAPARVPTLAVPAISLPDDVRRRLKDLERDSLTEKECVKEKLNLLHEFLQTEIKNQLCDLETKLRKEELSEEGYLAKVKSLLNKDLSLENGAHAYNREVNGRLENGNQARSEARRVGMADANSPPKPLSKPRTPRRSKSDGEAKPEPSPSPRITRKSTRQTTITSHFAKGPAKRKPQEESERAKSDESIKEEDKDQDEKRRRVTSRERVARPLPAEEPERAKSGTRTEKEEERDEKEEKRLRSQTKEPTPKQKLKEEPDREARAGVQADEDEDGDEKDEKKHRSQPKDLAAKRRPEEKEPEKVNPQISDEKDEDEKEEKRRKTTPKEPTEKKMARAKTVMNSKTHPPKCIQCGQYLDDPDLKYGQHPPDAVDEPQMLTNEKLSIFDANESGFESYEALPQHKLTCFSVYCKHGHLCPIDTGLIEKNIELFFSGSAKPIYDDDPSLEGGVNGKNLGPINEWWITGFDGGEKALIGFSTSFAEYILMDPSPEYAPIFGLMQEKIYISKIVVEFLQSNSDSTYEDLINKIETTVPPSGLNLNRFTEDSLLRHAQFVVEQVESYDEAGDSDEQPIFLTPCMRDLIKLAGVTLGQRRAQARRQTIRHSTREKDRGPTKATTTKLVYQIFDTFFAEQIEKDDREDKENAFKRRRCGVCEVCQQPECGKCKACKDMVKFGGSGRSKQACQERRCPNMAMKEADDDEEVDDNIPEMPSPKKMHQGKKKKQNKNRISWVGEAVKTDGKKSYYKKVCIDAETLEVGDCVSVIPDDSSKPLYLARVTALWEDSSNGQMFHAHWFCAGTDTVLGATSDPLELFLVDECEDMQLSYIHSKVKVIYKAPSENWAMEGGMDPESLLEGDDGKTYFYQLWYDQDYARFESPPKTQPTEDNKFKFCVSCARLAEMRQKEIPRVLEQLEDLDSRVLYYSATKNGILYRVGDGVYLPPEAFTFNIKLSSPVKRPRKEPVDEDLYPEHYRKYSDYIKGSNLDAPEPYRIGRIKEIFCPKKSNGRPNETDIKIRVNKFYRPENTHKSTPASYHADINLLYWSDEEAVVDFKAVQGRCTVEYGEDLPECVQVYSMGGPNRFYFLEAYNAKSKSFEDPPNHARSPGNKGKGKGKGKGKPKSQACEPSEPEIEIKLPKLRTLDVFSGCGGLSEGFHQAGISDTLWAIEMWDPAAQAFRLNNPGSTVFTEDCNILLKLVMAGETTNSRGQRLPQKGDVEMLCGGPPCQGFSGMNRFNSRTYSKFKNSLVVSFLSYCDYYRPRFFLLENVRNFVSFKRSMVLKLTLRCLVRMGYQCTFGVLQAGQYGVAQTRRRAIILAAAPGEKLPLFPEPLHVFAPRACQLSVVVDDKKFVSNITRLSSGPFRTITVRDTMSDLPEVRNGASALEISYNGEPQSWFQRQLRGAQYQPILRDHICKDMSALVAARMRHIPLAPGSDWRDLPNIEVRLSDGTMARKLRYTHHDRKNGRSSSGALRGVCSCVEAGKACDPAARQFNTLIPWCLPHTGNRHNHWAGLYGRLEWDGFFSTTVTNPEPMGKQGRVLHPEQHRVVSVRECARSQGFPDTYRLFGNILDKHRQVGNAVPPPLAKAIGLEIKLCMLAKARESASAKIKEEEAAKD

[11] = viability loss in THP-1 monocytes – THP-1 cells, cytotoxicity control for Vif-APOBEC3G degradation inhibitor project, dose response (AID 1117359); assay type: functional; conditions: THP-1
[12] = target: T5, Small ubiquitin-related modifier 1 (Homo sapiens, UniProt P63165); experiment: SUMO1 protein interaction blockers, potency – biochemical, fluorescence polarization, uHTS hits, dose response (AID 624382); assay type: functional; conditions: read-out: IC50_Mean
T5 sequence (P63165 whole entry): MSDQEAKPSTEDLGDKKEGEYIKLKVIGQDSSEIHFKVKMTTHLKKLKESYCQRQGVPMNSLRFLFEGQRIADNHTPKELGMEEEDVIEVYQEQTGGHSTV

[13] = target: 72 kDa type IV collagenase (Homo sapiens, UniProt P08253); experiment: Dose Response validation of uHTS RPN11 inhibitor hits using a MMP-2 Fluorescence assay.; assay type: functional
[14] = target: 26S proteasome non-ATPase regulatory subunit 14 (Homo sapiens, UniProt O00487); experiment: inhibition of proteasome subunit RPN11 – biochemical, fluorescence polarization, uHTS hits, confirmation (AID 602368); assay type: functional
Chain of 26S proteasome non-ATPase regulatory subunit 14 (O00487 whole entry, the tested form may be a part): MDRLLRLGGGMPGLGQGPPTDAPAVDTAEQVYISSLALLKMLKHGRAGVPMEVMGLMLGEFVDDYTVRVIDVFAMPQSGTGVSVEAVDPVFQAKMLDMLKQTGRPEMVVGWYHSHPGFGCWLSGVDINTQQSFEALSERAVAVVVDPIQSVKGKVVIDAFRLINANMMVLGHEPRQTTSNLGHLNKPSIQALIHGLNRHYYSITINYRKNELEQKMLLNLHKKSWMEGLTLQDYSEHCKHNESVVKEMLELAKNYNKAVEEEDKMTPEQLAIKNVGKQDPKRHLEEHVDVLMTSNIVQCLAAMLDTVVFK

[15] = target: T6, Carboxy-terminal domain RNA polymerase II polypeptide A small phosphatase 1 (Homo sapiens, UniProt Q9GZU7); experiment: CTDSP1 inhibitors, concentration-response, biochemical, absorbance readout, ultra-high-throughput screen actives (AID 540297); assay type: functional
T6 sequence (Q9GZU7 whole entry): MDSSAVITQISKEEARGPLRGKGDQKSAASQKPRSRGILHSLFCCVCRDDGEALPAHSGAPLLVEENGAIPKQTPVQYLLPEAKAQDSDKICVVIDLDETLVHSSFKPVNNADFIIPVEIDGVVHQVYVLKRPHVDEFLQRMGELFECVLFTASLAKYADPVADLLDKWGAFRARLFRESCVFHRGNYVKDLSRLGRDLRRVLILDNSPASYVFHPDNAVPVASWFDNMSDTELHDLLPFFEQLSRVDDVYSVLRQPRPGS

[16] = target: T5, Small ubiquitin-related modifier 1; experiment: SUMO1 protein-protein binding blockers, potency – biochemical, FRET, dose response (AID 624383); assay type: functional; conditions: read-out: IC50_Mean
Caspase-8 = Caspase-8 (Homo sapiens, UniProt Q14790); experiment: inhibitors of purified CASP8 protease – biochemical, Z-IETD-R110 fluorescence, cherry-picked samples, selectivity assay for caspase-6 inhibitor project, dose response (AID 743294)
Chain of Caspase-8 (Q14790 217-374 limits assumed): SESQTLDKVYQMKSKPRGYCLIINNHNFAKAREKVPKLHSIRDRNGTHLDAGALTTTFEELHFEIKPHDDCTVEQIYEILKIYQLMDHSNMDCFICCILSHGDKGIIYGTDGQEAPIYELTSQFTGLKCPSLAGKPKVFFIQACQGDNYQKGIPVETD
Chain of Caspase-8 (Q14790 385-479 limits assumed): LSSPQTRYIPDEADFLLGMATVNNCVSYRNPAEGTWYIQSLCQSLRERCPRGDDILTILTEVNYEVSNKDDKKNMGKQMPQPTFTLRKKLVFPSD

[17] = viability loss in HEK293 kidney cells – cell-based, cherry-picks, set 5, cytotoxicity control, dose response (AID 1053117); assay type: functional
[18] = toxicity to human hepatoma HepG2 cells – cell-based, cherry-picked samples, cytotoxicity control, dose response (AID 1159577); assay type: functional
[19] = P. falciparum Dd2 growth inhibitors, dose response, SYBR Green, cherry-picked samples (AID 1159567); assay type: functional, cell-based
[20] = activation of miR-122 Renilla sensor silencing – cell-based, Huh7 psiCHECK-miR122, Renilla luciferase, cherry-picked, dose response (AID 651956); assay type: functional;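 note: huh7 hepatoma cells stably carrying a psiCHECK-2 miR-122 sensor plasmid; renilla luciferase signal reporting endogenous miR-122 activity after 48 h compound exposure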
[21] = viability of BHK-21 cells – cell-based, secondary screen, cytotoxicity control for flavivirus guanylyltransferase probe project (AID 624078); assay type: functional
[22] = target: Potassium channel subfamily K member 3 (Rattus norvegicus, UniProt O54912); experiment: SAR analysis for the identification of selective inhibitors of the two-pore domain potassium channel TASK1(KCNK3):Automated Electrophysiology.; assay type: functional
Chain of Potassium channel subfamily K member 3 (Rattus norvegicus, UniProt O54912) (O54912 whole entry, the tested form may be a part): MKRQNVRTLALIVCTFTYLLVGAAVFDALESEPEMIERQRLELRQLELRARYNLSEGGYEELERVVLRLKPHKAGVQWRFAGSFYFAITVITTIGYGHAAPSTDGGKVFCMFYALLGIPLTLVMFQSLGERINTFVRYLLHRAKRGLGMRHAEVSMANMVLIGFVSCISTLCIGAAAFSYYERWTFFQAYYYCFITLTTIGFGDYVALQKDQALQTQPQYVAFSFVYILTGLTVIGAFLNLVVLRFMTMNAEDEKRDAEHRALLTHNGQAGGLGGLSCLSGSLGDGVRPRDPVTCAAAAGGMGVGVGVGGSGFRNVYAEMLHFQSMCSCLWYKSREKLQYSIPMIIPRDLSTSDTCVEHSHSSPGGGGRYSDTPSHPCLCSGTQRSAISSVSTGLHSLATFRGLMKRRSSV

[23] = target: Potassium channel subfamily K member 3 (Homo sapiens, UniProt O14649); experiment: inhibition of human KCNK3 channel flux – CHO cells, FluxOR thallium flux, SAR follow-up (AID 652212); assay type: functional
[24] = target: Potassium channel subfamily K member 9 (Homo sapiens, UniProt Q9NPC2); experiment: KCNK9 flux blockade, concentration-response – cell-based, FluxOR thallium flux, selectivity assay for TASK1 inhibitor project, SAR follow-up (AID 652211); assay type: functional;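 note: potency is for inhibitors of the channel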
Chain of Potassium channel subfamily K member 9 (Q9NPC2 whole entry): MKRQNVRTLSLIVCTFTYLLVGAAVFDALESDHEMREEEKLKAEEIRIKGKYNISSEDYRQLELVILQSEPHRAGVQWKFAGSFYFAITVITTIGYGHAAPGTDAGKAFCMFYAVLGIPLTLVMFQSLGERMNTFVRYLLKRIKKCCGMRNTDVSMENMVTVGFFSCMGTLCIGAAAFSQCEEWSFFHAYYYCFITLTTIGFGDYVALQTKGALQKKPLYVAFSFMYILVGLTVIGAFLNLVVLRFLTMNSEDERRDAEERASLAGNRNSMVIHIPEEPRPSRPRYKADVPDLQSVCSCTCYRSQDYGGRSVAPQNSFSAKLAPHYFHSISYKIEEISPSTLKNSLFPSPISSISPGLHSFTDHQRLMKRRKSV

IC50 [1]: 12.5 µM (active)
IC50 [2]: 19.3 µM (inactive)
IC50 (Genome polyprotein): > 100 µM (active)
Structure (SMILES): O=C1C(O)=C(O)C(=O)c2ccccc21

Structure (SMILES): O=C1S/C(=C\c2ccc(N3CCOCC3)o2)C(=O)N1Cc1c(F)cccc1Cl
AC50 [3]: 18.5 µM (active)
EC50 [4]: 6.68 µM (active)
EC50 [5]: > 260 µM (inactive)
AC50 [6]: 6.72 µM (active)
AC50 [7]: 42.1 µM (active)

IC50 [8]: > 122 µM (inactive)
IC50 [9]: > 122 µM (inactive)
Structure (SMILES): COc1ccc(NC(=O)c2sc3cc(C(F)(F)F)cnc3c2-c2cccs2)cc1

Structure (SMILES): Cc1ccc(NC(=O)CN(C)C(=O)c2cccc(-n3cccc3)c2)cc1
AC50 (Caspase-6): 1.5 µM (active)
IC50 (Prothrombin): 86.9 µM (active)
AC50 (Caspase-7): > 70 µM (inactive)
IC50 [10]: 9.26 µM (active)
CC50 [11]: > 40 µM (active)
IC50 [12]: > 66.6 µM (inactive)
IC50 [13]: 18.4 µM (active)
IC50 [14]: 11 µM (active)
IC50 [15]: 5.68 µM (active)
IC50 [16]: 5.95 µM (active)
AC50 (Caspase-8): > 70 µM (inactive)

Structure (SMILES): CO[C@@H]1CN(C)C(=O)c2cc(NC(=O)Nc3ccc(Cl)c(Cl)c3)ccc2OC[C@H](C)NC[C@H]1C
AC50 [17]: > 52 µM (inactive)
AC50 [18]: 7.83 µM (active)
AC50 [19]: 6.4 µM (active)
AC50 [20]: 24.8 µM (active)

Structure (SMILES): O=[N+]([O-])c1cccc(S(=O)(=O)Nc2cc(Sc3nc4ccccc4s3)c(O)c3ccccc23)c1
CC50 [21]: 11.5 µM (active)

IC50 [22]: 0.03 µM (active)
IC50 [23]: 0.008 µM (active)
IC50 [24]: 3.02 µM (active)
Structure (SMILES): COc1ccccc1NC(=O)c1cccc(NC(=O)c2ccccc2OC)c1
